Experimental data taken from US4172134A, “Benzo [B]thienopyridines, process for their preparation and therapeutic compositions containing same” (Parcor, priority 1977, dated 1979).

Key:
[1] = tested on: collagen-induced blood-platelet aggregation; test: Determination of collagen-induced blood-platelet aggregation; assay type: in vivo; conditions: Wistar rats, 100 mg/kg orally, 3 hours after treatment, collagen solution (bovine tendon extract), vs reference group, groups of 20 rats; for inhibition at 100 mg/kg: Rattus norvegicus, po, read-out: Percent inhibition of blood-platelet aggregation, Collagen
Experimental: (§1) 1. Blood-platelet aggregation inhibiting activity
(§2) Blood is taken from the jugular vein of Wistar rats. From this citrated blood and after centrifugation, is reconstituted a plasma containing 600,000±20,000 blood-platelets per mm3 which will be used in all aggregation determinations.
(§3) 0.4 ml of plasma is placed in a siliconized tube provided with a magnet bar which is also siliconized. The tube is introduced into an aggregometer connected with an apparatus which records optical density variations. When light transmission has attained a stable value, 0.5 ml of a solution containing 10 μM A.D.P. (Adenosine-Di-Phosphate) are introduced into the tube.
(§4) Blood-platelet aggregation then produces an increase of light transmission followed by a decrease subsequent to the deaggregation phase.
(§5) The maximal optical density variation thus determined characterizes the intensity of the aggregation.
The A.D.P. solution is substituted with a collagen solution (bovine tendon extract).
(§6) Different groups of 20 rats each are used, each group being orally administered a test derivative at a dosage of 100 mg/kg.

[2] = tested on: A.D.P. induced blood-platelet aggregation; test: Determination of A.D.P. induced blood-platelet aggregation; assay type: in vivo; conditions: Wistar rats, 100 mg/kg orally, 3 hours after treatment, 10 μM A.D.P. solution, vs reference group, groups of 20 rats; for inhibition at 100 mg/kg: Rattus norvegicus, po, read-out: Percent inhibition of blood-platelet aggregation, A.D.P.
Experimental: as §1, §2, §3, §4, §5, §6

`CC1NCc2c(sc3ccc(Cl)cc23)C1c1ccccc1` (centres unmarked) [Example 1, 8-Chloro-3-methyl-4-phenyl-1,2,3,4-tetrahydro-benzo(b)-thieno[3,2-c]pyridine] was tested, and the inhibition at 100 mg/kg [1] was 91.4% and the inhibition at 100 mg/kg [2] was 62.1%.
With `CC1NCc2c(sc3ccccc23)C1c1ccccc1` (centres unmarked) [Example 2, 3-Methyl-4-phenyl-1,2,3,4-tetrahydro-benzo(b)-thieno[3,2-c]-pyridine] the inhibition at 100 mg/kg [1] was 93.8% and the inhibition at 100 mg/kg [2] was 61.7%.
For `Clc1ccc2sc3c(c2c1)CNCC3c1ccccc1` (centres unmarked) [Example 3, 8-Chloro-1-phenyl-1,2,3,4-tetrahydro-benzo(b)thieno[3,2-c]-pyridine], the inhibition at 100 mg/kg [1] was 90.5% and the inhibition at 100 mg/kg [2] was 62.9%.
For `c1ccc(C2CNCc3c2sc2ccccc32)cc1` (centres unmarked) [Example 4, 4-Phenyl-1,2,3,4-tetrahydro-benzo(b)thieno[3,2-c]pyridine], the inhibition at 100 mg/kg [1] was 90.8% and the inhibition at 100 mg/kg [2] was 61.5%.
`CC1C(c2ccccc2)c2sc3ccc(Cl)cc3c2CN1C` (centres unmarked) [Example 5, 8-Chloro-2,3-dimethyl-4-phenyl-1,2,3,4-tetrahydro-benzo(b)-thieno[3,2-c]pyridine] was tested, and the inhibition at 100 mg/kg [1] was 91.2% and the inhibition at 100 mg/kg [2] was 60.8%.
For `CC1C(c2ccccc2)c2sc3ccc(Cl)cc3c2CN1Cc1ccccc1Cl` (centres unmarked) [Example 6, 8-Chloro-2-o-chlorobenzyl-3-methyl-4-phenyl-1,2,3,4-tetrahydro-benzo(b)thieno[3,2-c]pyridine], the inhibition at 100 mg/kg [1] was 94.4% and the inhibition at 100 mg/kg [2] was 61.2%.
Work on `CC1C(c2ccccc2)c2sc3ccc(Cl)cc3c2CN1Cc1ccccc1` (centres unmarked) [Example 7, 2-Benzyl-8-chloro-3-methyl-4-phenyl-1,2,3,4-tetrahydro-benzo(b)thieno[3,2-c]pyridine] yielded an inhibition at 100 mg/kg [1] of 95.1% and an inhibition at 100 mg/kg [2] of 63%.
For `Cc1ccc(N2Cc3c(sc4ccccc34)C(c3ccccc3)C2)cc1` (centres unmarked) [Example 8, 4-Phenyl-2-p.tolyl-1,2,3,4-tetrahydro-benzo(b)-thieno[3,2-c]-pyridine], the “Percent inhibition of blood-platelet aggregation, Collagen” value [1] was 90.6% and the “Percent inhibition of blood-platelet aggregation, A.D.P.” value [2] was 61.4%.
With `COc1cccc(CN2Cc3c(sc4ccccc34)C(c3ccccc3)C2C)c1` (centres unmarked) [Example 9, 3-Methyl-P2-m.methoxybenzyl-4-phenyl-1,2,3,4-tetrahydro-benzo(b)thieno[3,2-c]pyridine] the inhibition at 100 mg/kg [1] was 91.2% and the inhibition at 100 mg/kg [2] was 61.8%.
`COc1cc(CN2Cc3c(sc4ccc(Cl)cc34)C(c3ccccc3)C2C)cc(OC)c1OC` (centres unmarked) [Example 10, 8-Chloro-2-(3,4,5-trimethoxy-benzyl)-3-methyl-4-phenyl-1,2,3,4-tetrahydro-benzo(b)thieno[3,2-c]pyridine] was tested, and the inhibition at 100 mg/kg [1] was 94.5% and the inhibition at 100 mg/kg [2] was 60.2%.
Work on `O=[N+]([O-])c1ccccc1CN1Cc2c(sc3ccc(Cl)cc23)C(c2ccccc2)C1` (centres unmarked) [Example 11, 8-Chloro-2-o.nitrobenzyl-4-phenyl-1,2,3,4-tetrahydro-benzo(b)thieno[3,2-c]pyridine] yielded an inhibition at 100 mg/kg [1] of 92.7% and an inhibition at 100 mg/kg [2] of 62.5%.
With `N#Cc1ccccc1CN1Cc2c(sc3ccccc23)C(c2ccccc2)C1` (centres unmarked) [Example 12, 2-o.Cyanobenzyl-4-phenyl-1,2,3,4-tetrahydro-benzo(b)thieno-[3,2-c]pyridine] the inhibition at 100 mg/kg [1] was 92.2% and the inhibition at 100 mg/kg [2] was 61.3%.
`COC(=O)c1ccccc1CN1Cc2c(sc3ccc(Cl)cc23)C(c2ccccc2)C1C` (centres unmarked) [Example 13, 8-Chloro-3-methyl-2-o.methoxycarbonylbenzyl-4-phenyl-1,2,3,4-tetrahydro-benzo(b)thieno[3,2-c]pyridine] gave an inhibition at 100 mg/kg [1] of 95% and an inhibition at 100 mg/kg [2] of 62.1%.
For `CC1C(c2ccccc2)c2sc3ccc(Cl)cc3c2CN1Cc1ccccc1C(=O)O` (centres unmarked) [Example 14, 2-o.Carboxybenzyl-8-chloro-3-methyl-4-phenyl-1,2,3,4-tetrahydro-benzo(b)thieno[3,2-c]pyridine], the inhibition at 100 mg/kg [1] was 93.8% and the inhibition at 100 mg/kg [2] was 60.6%.
`CCCCN1Cc2c(sc3ccc(Cl)cc23)C(c2ccccc2)C1C` (centres unmarked) [Example 15, 2-Butyl-8-chloro-3-methyl-4-phenyl-1,2,3,4-tetrahydro-benzo(b)thieno[3,2-c]pyridine] showed an inhibition at 100 mg/kg [1] of 92.6% and an inhibition at 100 mg/kg [2] of 60.1%.
Work on `CC1C(c2ccccc2)c2sc3ccccc3c2CN1CCc1ccccc1` (centres unmarked) [Example 16, 3-Methyl-2-phenethyl-4-phenyl-1,2,3,4-tetrahydro-benzo(b)-thieno[3,2-c]pyridine] yielded an inhibition at 100 mg/kg [1] of 93.2% and an inhibition at 100 mg/kg [2] of 62.7%.
Work on `CC1C(c2ccccc2)c2sc3ccc(Cl)cc3c2CN1Cc1cccnc1` (centres unmarked) [Example 17, 8-Chloro-3-methyl-4-phenyl-2-(3-pyridyl)methyl-1,2,3,4-tetrahydro-benzo(b)thieno[3,2-c]pyridine] yielded an inhibition at 100 mg/kg [1] of 90.4% and an inhibition at 100 mg/kg [2] of 63.5%.
Work on `CC1C(c2ccccc2)c2sc3ccccc3c2CN1Cc1ccccn1` (centres unmarked) [Example 18, 3-Methyl-4-phenyl-2-(2-pyridyl)methyl-1,2,3,4-tetrahydro-benzo(b)thieno[3,2-c]pyridine] yielded an inhibition at 100 mg/kg [1] of 91.7% and an inhibition at 100 mg/kg [2] of 61.3%.
`CC1C(c2ccccc2)c2sc3ccc(Cl)cc3c2CN1Cc1ccncc1` (centres unmarked) [Example 19, 8-Chloro-3-methyl-4-phenyl-2-(4-pyridyl)methyl-1,2,3,4,-tetrahydrobenzo(b)thieno[3,2-c]pyridine] gave an inhibition at 100 mg/kg [1] of 91.9% and an inhibition at 100 mg/kg [2] of 62.4%.
